Test results reported in US20220402917A1, “COMPOUND AS SMALL MOLECULE INHIBITOR PD-1/PD-L1 AND APPLICATION THEREOF” (MEDSHINE DISCOVERY INC., priority 2019, published 2022).

Tests used:
[1] = Pharmacokinetic test in C57BL/6 mice; format: in vivo; details: mouse, plasma, male C57BL/6 mice
Procedure: Experimental Example 4: Pharmacokinetic Test
Experimental purpose: To study the pharmacokinetics of compounds in C57BL/6 mice.
Experimental materials: C57BL/6 mice (male, 8 weeks old, body weight 25 g-30 g)
Experimental operation: The pharmacokinetic characteristics of rodents after intravenous (IV) and oral (PO) administration of compounds were tested in standard protocols. In the experiment, the candidate compounds were formulated into 1 mg/mL clear solutions, and administered to mice via a single intravenous injection and oral administration. The vehicle of intravenous and oral administration was 5% DMSO/5% polyethylene glycol 15-hydroxystearate (Solutol)/90% aqueous solution. Four male C57BL/6 mice were used in the experiment, wherein two mice were administered intravenously at a dose of 1 mg/kg, and the plasma samples were collected 0.0833, 0.25, 0.5, 1, 2, 4, 6, 8 and 24 h after administration, the other two mice were given oral gavage at a dose of 10 mg/kg, and the plasma samples were collected 0.25, 0.5, 1, 2, 4, 6, 8, and 24 h after administration. Whole blood samples within 24 hours were collected, centrifuged at 3000 g for 15 minutes, and the supernatant was separated to obtain plasma samples. Acetonitrile solution containing internal standard was added thereto to precipitate proteins, the mixture was thoroughly mixed and centrifuged to obtain the supernatant for injection. The plasma concentration was quantified by LC-MS/MS analysis method, and the pharmacokinetic parameters were calculated, such as peak concentration (Cmax), clearance (CL), half-life (T1/2), […] (Vdss), area under the drug-time curve (AUC0-last), bioavailability (F) and so on.

PD1/PD-L1 = PD1/PD-L1 (Homo sapiens, UniProt Q9NZQ7); assay: NFAT activity test (TCR Activitor/PD-L1 CHO cells with PD-1/NFAT Reporter-Jurkat cells); format: cell-based; parameters: host or cells: TCR Activitor/PD-L1 CHO cells; PD-1/NFAT Reporter-Jurkat cells; details: TCR Activitor/PD-L1 CHO cells + PD-1/NFAT Reporter-Jurkat cells, 5 hours, luciferase; for IC50: read-out: IC50, inhibitory activity on PD1/PD-L1 binding (NFAT activity test)
Chain of PD1/PD-L1 (Q9NZQ7 19-290): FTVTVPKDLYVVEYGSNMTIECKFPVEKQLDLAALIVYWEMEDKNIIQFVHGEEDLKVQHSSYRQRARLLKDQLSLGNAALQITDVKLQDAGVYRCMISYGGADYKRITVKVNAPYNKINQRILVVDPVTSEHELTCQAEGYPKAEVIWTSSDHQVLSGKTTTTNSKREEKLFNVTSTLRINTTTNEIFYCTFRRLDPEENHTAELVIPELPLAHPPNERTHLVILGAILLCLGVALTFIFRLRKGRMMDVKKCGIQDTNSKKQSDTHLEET
Text: Experimental Example 3: NFAT Activity Test
The engineered T cell expresses PD-1 molecules and T cell receptor (TCR) on the surface, which can activate the NFAT signaling pathway of T cells after co-culturing with engineered antigen presenting cells (APCs). Expression of PD-L1 molecules on APCs can effectively attenuate the NFAT signaling pathway in T cells. PD-L1 inhibitors can be used effectively block the PD-1/PD-L1 regulatory mechanism, thereby reversing the weakened NFAT signaling pathway. After being pretreated with APC, the small molecule is co-cultured with T cells, then the expression of luciferase was detected to indirectly reflect the activation of the NFAT pathway in T cells.
The PD1/PD-L1 NFAT detection kit was purchased from BPS Biosciences. Birght-Glo reagent was purchased from Promega. Nivo multi-label analyzer (PerkinElmer).
The TCR Activitor/PD-L1 CHO cells with a growth confluence of 80% were plated into the plate at 35,000 cells per well and placed in a 37° C. cell culture incubator overnight; the compounds to be tested were diluted 5-fold to the 8th concentration, from 20 μM to 0.25 nM, and the DMSO concentration was 2%, a double-well experiment was set up. The TCR Activitor/PD-L1 CHO cell supernatant was discarded, 50 μl of compound working solution was added to each well, incubated at 37° C. for 30 minutes; after the incubation was completed, 50 μL of PD-1/NFAT Reporter-Jurkat cell suspension with a concentration of 4*10^5 cells/mL was added to each well, incubated at 37° C. for 5 hours. After the incubation was completed, 100 μL Bright-Glo was added to each well, and after mixing, the chemiluminescence signal was detected by a Nivo multi-label analyzer.
Using the equation (sample−Min)/(Max−Min)×100% to convert the raw data into inhibition rate, and the IC50 value can be obtained by curve fitting with four parameters (obtained from log(inhibitor) vs. response—Variable slope mode in GraphPad Prism). Table 3 provides the inhibitory activity of the compounds of the examples of the present disclosure on PD1/PD-L1 binding.

[2] = target: T1, PD-L1 in MDA-MR-231 cells (Homo sapiens, UniProt Q9NZQ7); assay: Effect on expression level of PD-L1 in MDA-MR-231 cells (FACS); format: cell-based; details: 24 hours incubation, FACS detection of cell surface PD-L1
T1 construct: endogenous in cells; host or cells: MDA-MB-231
T1 sequence (Q9NZQ7 19-290): as above
Procedure: Experimental Example 2: Using MDA-MR-231 Cells to Detect the Effect of Compounds on the Expression Level of PD-L1
The use of a triple-negative breast cancer cell line (MDA-MB-231) is an indirect method to assess PD-L1 endocytosis. PD-L1 molecules on the cell surface can be degraded by lysosomal and proteasome pathways, and small molecule inhibitors are added to induce PD-L1 endocytosis. After co-incubating small molecules with MDA-MB-231 cells for 24 hours, flow cytometry (Fluorescence-activated Cell Sorting, FACS) is used to detect the content of PD-L1 on the cell surface, which can indirectly reflect the effect of small molecule-induced PD-L1 endocytosis. Flow cytometry (FACS) is used to detect the effect of the compounds of the present disclosure on the expression level of PD-L1 in MDA-MR-231 cells.
Phosphate buffer (DPBS), 1640 medium, penicillin-streptomycin, fetal bovine serum, non-essential amino acids, 2-hydroxy-1-ethanethiol (2-ME), human interferon γ, LIVE/DEAD staining solution, staining buffer, fixation buffer, 0.25% trypsin, EDTA, anti-human PD-L1, anti-human PD-L1 isotype.
1640 complete medium preparation: 50 mL of fetal bovine serum, 5 mL of non-essential amino acids, 5 mL of penicillin-streptomycin and 0.5 mL of 2-hydroxy-1-ethanethiol were added to 439.5 mL of 1640 medium, and evenly mixed.
10 mM EDTA preparation: 1 mL of 0.5M EDTA was added to 49 mL of DPBS, and evenly mixed.
1) MDA-MB-231 cell counting and plating: The culture flask was taken out, the medium was removed and the culture flask was rinsed once with DPBS. After the culture flask was rinsed, 3 mL of 0.25% trypsin was added to the culture flask and the culture flask was placed in a 37° C. incubator for 1.5 min. The culture flask was taken out, 9 mL of 1640 complete medium was added to stop the reaction, the cells was transferred to a 50 mL centrifuge tube, and centrifuged at 1000 rpm for 5 min at 37° C. An appropriate volume of medium was added to re-suspend the cells according to the number of cells, and the number of cells was counted with a cell counter. The cell concentration was adjusted to 5×10^5 cells/mL with medium. Planking: A volume of 200 μL of cell suspension was added to each well of a 96-well plate, ensure that the number of cells in each well was 1×10^5. The cells were incubated overnight in an incubator. 2) Drug incubation: 100-fold dilution of compounds were prepared, and the drug was subjected to a 5-fold gradient dilution. 2 μL of each 100-fold dilution of compounds were added to each well. The cells were incubated in an incubator at 37° C. for 24 hours. 3) PD-L1 cell staining and FACS detection: the culture plate was taken out and the supernatant medium was discarded. The cells were washed once with 200 μL 1×PBS. 100 μL of EDTA (final concentration of 10 mM) was added to the cell suspension, and the cell suspension was treated at 37° C. for 10 min. Then after the cell suspension was centrifuged at 1500 rpm for 5 min, the cell suspension was washed once with 200 μL of staining solution. Staining: anti-human PD-L1 (2 μL per well) and LIVE/DEAD staining solution (1:1000) were diluted in staining solution, 50 μL of the staining solution was added to each well, and the staining was conducted at 4° C. for 30 min. Then the solution was washed twice with 200 μL of staining solution. Fixation: 100 μL of fixing solution was added to each well, the fixation was conducted at 4° C. for 15 min. The solution was then washed twice with 200 μL of staining solution, and 150 μL of solution was added to re-suspend the cells, followed by FACS detection.
Table 2 provides the effects of the compounds of the examples of the present disclosure on the expression level of PD-L1 in MDA-MR-231 cells.

SMILES | bioavailability ([1]; PO 10 mg/kg vs IV 1 mg/kg, read-out: Bioavailability F) | Cmax ([1]; IV 1 mg/kg, PO 10 mg/kg (route not given for Cmax), read-out: Peak concentration Cmax) | clearance ([1]; IV 1 mg/kg, read-out: Clearance CL) | half-life ([1]; IV 1 mg/kg, read-out: Half-life T1/2 (IV) (converted)) | Vd ([1]; IV 1 mg/kg, read-out: Tissue distribution Vdss) | AUC(0-t) ([1]; PO 10 mg/kg, read-out: Area under the drug-time curve AUC0-last PO) | Maximum effect (induction fold) (PD1/PD-L1) | IC50 (PD1/PD-L1) | IC50 [2]
COc1nc(-c2cccc(-c3cccc(NC(=O)c4cc(C)c5c(n4)CN(CCO)C5)c3Cl)c2Cl)cnc1CN1CC(O)C1 [Compound 50] | 63.5% | 221 nM | 85.5 mL/min/kg | 3.72 h | 18.3 L/kg | 1.66 µM·h | 4.55 induction fold | 45.8 nM | –
Cc1cc(C(=O)Nc2cccc(-c3cccc(NC(=O)c4ccc(CNCCO)cn4)c3C)c2Cl)nc2c1CCN(CCO)C2 [Compound 9] | – | – | – | – | – | – | 3.77 induction fold | 32.6 nM | 41.1 nM
COc1nc(-c2cccc(-c3cccc(NC(=O)c4cc(C)c5c(n4)CN(CC(O)CO)CC5)c3Cl)c2Cl)cnc1CN1CC(O)C1 (centres unmarked) [Compound 30] | – | – | – | – | – | – | 4.80 induction fold | 26.6 nM | 10.5 nM
COc1cc(C(=O)Nc2cccc(-c3cccc(-c4cnc(CN5CC(O)C5)c(OC)n4)c3Cl)c2Cl)nc2c1CCN(CCO)C2 [Compound 41] | – | – | – | – | – | – | 3.50 induction fold | 29.2 nM | 5.27 nM
COc1nc(-c2cccc(-c3cccc(NC(=O)c4nc(C)c5c(n4)CN(CCO)CC5)c3Cl)c2Cl)cnc1CN1CC(O)C1 [Compound 36] | – | – | – | – | – | – | 3.20 induction fold | 46.5 nM | 95.8 nM
COc1nc(-c2cccc(-c3cccc(NC(=O)c4cc(C)c5c(n4)CN(CCC(C)O)CC5)c3Cl)c2Cl)cnc1CN1CC(O)C1 (centres unmarked) [Compound 49] | – | – | – | – | – | – | 5.30 induction fold | 175 nM | 33.8 nM
Cc1cc(C(=O)Nc2cccc(-c3cccc(NC(=O)c4ccc(CNCCO)cn4)c3Cl)c2Cl)nc2c1CCN(CCO)C2 [Compound 5] | – | – | – | – | – | – | 3.68 induction fold | 16.2 nM | 32.7 nM
COc1nc(-c2cccc(-c3cccc(NC(=O)c4cc(C)c5c(n4)CN(CCO)CC5)c3Cl)c2Cl)cnc1CN[C@H]1C[C@](C)(O)C1 [Compound 34] | – | – | – | – | – | – | 4.09 induction fold | 44.7 nM | 21.9 nM
COc1nc(-c2cccc(-c3cccc(NC(=O)c4cc(C)c5c(n4)CN(CC(=O)O)CC5)c3Cl)c2C)cnc1CN1CC(O)C1 [Compound 22] | – | – | – | – | – | – | 3.79 induction fold | 58.8 nM | 79.7 nM
COc1nc(-c2cccc(-c3cccc(NC(=O)c4cc(C)c5c(n4)CN(C(C)CO)CC5)c3Cl)c2Cl)cnc1CN1CC(O)C1 (centres unmarked) [Compound 27] | – | – | – | – | – | – | 3.48 induction fold | 28.9 nM | 14.6 nM
COc1nc(-c2cccc(-c3cccc(NC(=O)c4cc(C(F)(F)F)c5c(n4)CN(CCO)CC5)c3Cl)c2Cl)cnc1CN1CC(O)C1 [Compound 46] | – | – | – | – | – | – | 5.56 induction fold | 571 nM | 22.6 nM
COc1nc(-c2cccc(-c3cccc(NC(=O)c4cc(C)c5c(n4)CN(CCO)CC5)c3C#N)c2Cl)cnc1CN1CC(O)C1 [Compound 47] | – | – | – | – | – | – | 4.01 induction fold | 52 nM | 37.2 nM
COc1nc(-c2cccc(-c3cccc(NC(=O)c4cc(OCc5cncc(C#N)c5)c5c(n4)CN(CCO)CC5)c3Cl)c2Cl)cnc1CN1CC(O)C1 [Compound 51] | – | – | – | – | – | – | 4.28 induction fold | 47.9 nM | 25.8 nM
COc1nc(-c2cccc(-c3cccc(NC(=O)c4cc(C)c5c(n4)CN(CCO)CC5)c3Cl)c2Cl)cnc1CN1CCC2(CNC(=O)C2)C1 (centres unmarked) [Compound 32] | – | – | – | – | – | – | 4.93 induction fold | 52.2 nM | 5.53 nM
COc1nc(-c2cccc(-c3cccc(NC(=O)c4cc(C)c5c(n4)CN(CCO)CC5)c3Cl)c2Cl)cnc1CNCCO [Compound 31] | – | – | – | – | – | – | 4.12 induction fold | 22.6 nM | 8.58 nM
COc1nc(-c2cccc(-c3cccc(NC(=O)c4cc(C#N)c5c(n4)CN(CCO)CC5)c3Cl)c2Cl)cnc1CN1CC(O)C1 [Compound 45] | – | – | – | – | – | – | 4.37 induction fold | 45.4 nM | 7.81 nM
